Entries after “also recorded” stand apart in the source; their conditions may differ. Where no end group is shown, it is not given here. The star is where a group is joined. Biotin = O=C1N[C@H]2[C@H](CS[C@H]2CCCCC(=O)*)N1
Experiments:
[1] = tested on: allogeneic T cells co-cultured with BM-DCs; assay: Functional maturation of BM-DCs: allogeneic T cell proliferation in mixed lymphocyte reaction (3H-thymidine); assay type: cell-based, mouse; conditions: BM-DCs from C57/BL6 mice exposed 48 h; peptide 200 μg/ml, HMGB1-Bx 50 μg/ml; DC:T cell ratio 1:120, 5 days; FIG. 4A
Experimental: Immature BM-DCs that were generated from C57/BL6 mice (FIG. 4A) or Balb/c mice (FIG. 4B) were incubated for 48 h with either HMGB1-Bx (50 μg/ml), a particular HMGB1 peptide (200 μg/ml), LPS (100 ng/ml) or were left untreated (medium). T cells were isolated by negative selection using the mouse SpinSep antibody cocktail from StemCell Technologies (Vancouver, Calif.), according to the manufacturer's instructions. The cell purity of the isolated T cells was routinely ˜99% pure. In order to assess levels of T cell activation and proliferation, cells were plated at 10^5 cells per well in a round-bottomed 96-well tray at a DC:T cell ratio of 1:120 for 5 days in the medium described above. The microcultures were pulsed with (^3H)-thymidine ([…]) for the final 8 h of culture. Cell cultures were harvested onto glass fiber filters with an automated multiple sample harvester and the amount of isotope incorporation was determined by liquid scintillation β-emission. Responses are reported as mean cpm of thymidine incorporation by triplicate cultures (±SEM).

[2] = tested on: human immature monocyte-derived dendritic cells (DCs); assay: Cytokine/chemokine secretion by human immature monocyte-derived dendritic cells (ELISA); assay type: cell-based; parameters: key to TNFα secretion / IL-18 secretion / IL-8 secretion / IL-10 secretion / IL-6 secretion / IL-12 secretion: “+” indicates an increase; “−” indicates no change relative to untreated cells (medium); conditions: for IL-6 secretion / IL-8 secretion / IL-10 secretion / IL-12 secretion / IL-18 secretion / TNFα secretion: HUMAN DC, ELISA 48 h after exposure, relative to untreated cells; for secretion of IL-6 by DCs: FIGS. 1A, 1B
Experimental: Peripheral blood mononuclear cells (PBMCs) were isolated from the blood of normal volunteers (Long Island Blood Services, Melville, N.Y.) over a Ficoll-Hypaque (Amersham Biosciences, Uppsala, Sweden) density gradient. CD14^+ monocytes were isolated from PBMCs by positive selection using anti-CD14 beads (Miltenyi Biotech., Auburn, Calif.), following the manufacturer's instructions. To generate DCs, CD14^+ cells were cultured in RPMI 1640 medium supplemented with 2 mM L-glutamine (GIBCO-BRL Life Technologies, Grand Island, N.Y.), 50 μM 2-mercaptoethanol (Sigma, St. Louis, Mo.), 10 mM HEPES (GIBCO-BRL), penicillin (100 U/ml), streptomycin (100 μg/ml) (GIBCO-BRL), and 5% human AB serum (Gemini Bio-Products, Woodland, Calif.). Cultures were maintained for 7 days in 6-well trays (3×10^6 cells/well) supplemented with 1000 U GM-CSF per ml (Immunex, Seattle, Wash.) and 200 U IL-4 per ml (R&D Systems, Minneapolis, Minn.) at days 0, 2, 4 and 6.
(§1) Recombinant HMGB1-B box domain (HMGB1-Bx) was expressed in Escherichia coli and purified as described by Li, et al. (Mol. Med. 9:37-45; J. Immunol. Methods 289:211-223 (2004)). Purified HMGB1-Bx contained trace amounts of LPS (19 pg LPS/μg HMGB1-Bx) as measured by the chromogenic Limulus amebocyte lysate assay (BioWhittacker Inc, Walkersville, Md.). All experiments using HMGB1-Bx, as well as the HMGB1 peptides, were performed in the presence of polymyxin B (200 U/ml) to neutralize the amount of contaminating LPS in the HMGB1-Bx and peptide preparations. We have previously shown that the DC stimulatory capacity of HMGB1-Bx requires an intact tertiary structure and is not due to contaminating amounts of LPS, as trypsinization abolished HMGB1-Bx activity (Messmer, et al., J. Immunol. 173: 307-313 (2004); the entire teachings of which are incorporated herein by reference).
(§2) Secreted cytokine/chemokine levels were measured by ELISA (Pierce Boston Technology Center, SearchLight™ Proteome Arrays Multiplex Sample Testing Services, Woburn, Mass.) 48 h after addition of the various peptides. Polymyxin B (200 U/ml) was added to all cultures, except those containing LPS, before the stimuli were added. Immature monocyte-derived human dendritic cells (DCs) and immature bone-marrow derived murine dendritic cells (BM-DCs) were cultured either in the presence of HMGB1 peptides (200 μg/ml), whose sequences map to different regions of the HMGB1 protein (see Table 1), the entire HMGB1 B-box domain (HMGB1-Bx) (50 μg/ml), or LPS (100 ng/ml). Untreated cells (medium) were tested as a control. Each peptide was named according to the corresponding position of its first amino acid within the full-length HMGB1 sequence. All peptides were N-terminally biotinylated except “Hp-106 (non bio)”.

[3] = tested on: murine bone marrow-derived dendritic cells (BM-DCs); assay: Cytokine/chemokine secretion by murine bone marrow-derived dendritic cells (ELISA); assay type: cell-based, mouse; parameters: key to TNFα secretion / IL-18 secretion / IL-8 secretion / IL-10 secretion / IL-2 secretion / IL-1β secretion / IL-5 secretion / IL-6 secretion / IL-12 secretion: “+” indicates an increase; “−” indicates no change relative to untreated cells (medium); conditions: for IL-1β secretion / IL-2 secretion / IL-5 secretion / IL-6 secretion / IL-8 secretion / IL-10 secretion / IL-12 secretion / IL-18 secretion / TNFα secretion: MURINE DC, ELISA 48 h after exposure, relative to untreated cells; for IL-1β secretion / IL-2 secretion / IL-5 secretion / IL-6 secretion / IL-8 secretion / IL-10 secretion / IL-12 secretion / IL-18 secretion / TNFα secretion / secretion of IL-1β / secretion of IL-2 / secretion of IL-8 / secretion of IL-5 / secretion of IL-18 / secretion of TNF-α / secretion of IL-12 (p70): peptides 200 μg/ml, HMGB1-Bx 50 μg/ml; for cytokine secretion by murine BM-DCs / secretion of IL-1β / secretion of IL-2 / secretion of IL-8 / secretion of IL-5 / secretion of IL-18 / secretion of TNF-α / secretion of IL-12 (p70): murine BM-DCs; for secretion of IL-1β: FIG. 2A; for secretion of IL-1β / secretion of IL-2 / secretion of IL-8 / secretion of IL-5 / secretion of IL-18 / secretion of TNF-α / secretion of IL-12 (p70): 48 h; for secretion of IL-2: FIG. 2C; for secretion of IL-8: FIG. 2D; for secretion of IL-5: FIG. 2E; for secretion of IL-18: FIG. 2F; for secretion of TNF-α: FIG. 2G; for secretion of IL-12 (p70): FIGS. 2B, 2H
Experimental: Bone marrow-derived DCs (BM-DCs) were generated using modifications of the original method described by Inaba, et al. (J. Exp. Med. 1 76:1693-1702 (1992)). In brief, bone marrow suspensions were incubated with red cell lysis buffer (PUREGENE™ RBC Lysis Solution, Gentra Systems, Minneapolis, Minn.) to remove red blood cells. After washing in media, lymphocytes and Ia-positive cells were killed with a cocktail of monoclonal antibodies (mAbs) and rabbit complement for 60 min at 37° C. The mAbs that were used were GK1.5 anti-CD4, TIB211 anti-CD8, TIB 120 anti-Ia, and TIB 146 anti B220 (these mAbs were kindly provided by Dr. Ralph Steinman). The cells were subsequently cultured in media containing 5% FCS and 10 ng/ml recombinant mouse GM-CSF (R&D Systems, Minneapolis, Minn.) for 7 days. For some experiments, the cells were further purified at day 7 using CD11c^+-microbeads (Miltenyi Biotech., Auburn, Calif.), according to the manufacturer's instructions.
as §1, §2

[4] = peptides 200 μg/ml, HMGB1-Bx 50 μg/ml
[5] = human DCs, peptides 200 μg/ml, 48 h

Row | Sequence | proliferation of resting allogeneic T cells (3H thymidine incorporation) [1] | IL-6 secretion [2, 4] | IL-8 secretion [2, 4] | IL-10 secretion [2, 4] | IL-12 secretion [2, 4] | IL-18 secretion [2, 4] | TNFα secretion [2, 4] | cytokine secretion by human DCs ([2]; human DCs) | secretion of IL-6 by DCs [2, 5] | IL-1β secretion [3] | IL-2 secretion [3] | IL-5 secretion [3] | IL-6 secretion [3] | IL-8 secretion [3] | IL-10 secretion [3] | IL-12 secretion [3] | IL-18 secretion [3] | TNFα secretion [3] | cytokine secretion by murine BM-DCs [3] | secretion of IL-1β [3] | other results
1 | YAFFVQTCREEHIKKHPD [Hp-16] | activated proliferation | − | − | − | − | − | − | did not stimulate cytokine secretion and not | did not induce IL-6 secretion | + | + | + | − | − | − | + | + | − | enhanced cytokine secretion; also recorded: stimulated cytokine secretion | enhanced secretion | secretion of IL-2 [3]: enhanced secretion; secretion of IL-8 [3]: only Hp-106 enhanced secretion; secretion of IL-5 [3]: enhanced secretion; secretion of IL-18 [3]: enhanced secretion; secretion of TNF-α [3]: only Hp-106 enhanced secretion; secretion of IL-12 (p70) [3]: enhanced secretion
2 | CSEYRPKIKGEHPGLSIG [Hp-106] (Biotin-CSEYRPKIKGEHPGLSIG; listed as Homo sapiens) | activated proliferation | + | − | − | + | + | + | induced cytokine secretion by human DCs | induced secretion | + | + | + | − | + | − | + | + | + | induced cytokine secretion by murine BM-DCs; also recorded: high levels of cytokine secretion | enhanced secretion | secretion of IL-12 (p70) ([2]; human DCs, FIG. 1C, peptides 200 μg/ml, 48 h): induced secretion; secretion of TNF-α ([2]; human DCs, FIG. 1D, peptides 200 μg/ml, 48 h): induced secretion; secretion of IL-18 ([2]; human DCs, FIG. 1E, peptides 200 μg/ml, HMGB1-Bx 50 μg/ml, 48 h): induced secretion; secretion of IL-8 ([2]; human DCs, FIG. 1F, peptides 200 μg/ml, HMGB1-Bx 50 μg/ml, 48 h): did not induce secretion; secretion of IL-2 [3]: enhanced secretion; secretion of IL-8 [3]: enhanced secretion; secretion of IL-5 [3]: enhanced secretion; secretion of IL-18 [3]: enhanced secretion; secretion of TNF-α [3]: enhanced secretion; secretion of IL-12 (p70) [3]: enhanced secretion

— patent US8354106B2, “Antibodies against HMGB1 and fragments thereof” (The Feinstein Institute for Medical Research, priority 2005, dated 2013)
